Results: PubChem BioAssay AID248 (DTP/NCI, 2004)
Several values for one entry are separate records, joined by “and”; a condition that tells them apart may be missing. Equal entries are not always repeated. Toxic doses and inconclusive results are not listed. Rule as the data show it: active = T/C of 150% or more; inactive = T/C below 125%.

System: L1210 leukemia ip in BDF1 mice, survival T/C
Test: NCI In Vivo Anticancer Drug Screen. Data for tumor model L1210 Leukemia (intraperitoneal) in B6D2F1 (BDF1) mice
Settings: endpoint: mean survival time, higher = longer survival
Outline: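 Transplanted-tumor mice were given test agent; controls received vehicle only. Survival readings from the two groups were divided (treated over control).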

[1] = dose: 12.5 mg/kg/injection, schedule: Q01DX009 (ip), vehicle: saline with Tween-80
[2] = dose: 100.0 mg/kg/injection, schedule: Q01DX009 (ip), vehicle: Klucel (hydroxypropylcellulose) (HPC)
[3] = dose: 100.0 mg/kg/injection, schedule: Q04DX003 (ip), vehicle: Klucel (hydroxypropylcellulose) (HPC)
[4] = dose: 200.0 mg/kg/injection, schedule: Q01DX009 (ip), vehicle: Klucel (hydroxypropylcellulose) (HPC)
[5] = dose: 200.0 mg/kg/injection, schedule: Q04DX003 (ip), vehicle: Klucel (hydroxypropylcellulose) (HPC)
[6] = dose: 400.0 mg/kg/injection, schedule: Q01DX009 (ip), vehicle: Klucel (hydroxypropylcellulose) (HPC)
[7] = dose: 400.0 mg/kg/injection, schedule: Q04DX003 (ip), vehicle: Klucel (hydroxypropylcellulose) (HPC)
[8] = dose: 100.0 mg/kg/injection, schedule: Q04DX003 (ip), vehicle: saline with Tween-80
[9] = dose: 200.0 mg/kg/injection, schedule: Q04DX003 (ip), vehicle: saline with Tween-80
[10] = dose: 400.0 mg/kg/injection, schedule: Q04DX003 (ip), vehicle: saline with Tween-80
[11] = dose: 50.0 mg/kg/injection, schedule: Q01DX001 (ip), vehicle: saline
[12] = dose: 100.0 mg/kg/injection, schedule: Q01DX001 (ip), vehicle: saline
[13] = dose: 200.0 mg/kg/injection, schedule: Q01DX001 (ip), vehicle: saline
[14] = dose: 400.0 mg/kg/injection, schedule: Q01DX001 (ip), vehicle: saline
[15] = dose: 50.0 mg/kg/injection, schedule: Q01DX001 (ip), vehicle: carboxymethylcellulose (CMC)
[16] = dose: 100.0 mg/kg/injection, schedule: Q01DX001 (ip), vehicle: carboxymethylcellulose (CMC)
[17] = dose: 200.0 mg/kg/injection, schedule: Q01DX001 (ip), vehicle: carboxymethylcellulose (CMC)
[18] = dose: 400.0 mg/kg/injection, schedule: Q01DX001 (ip), vehicle: carboxymethylcellulose (CMC)
[19] = dose: 100.0 mg/kg/injection, schedule: Q01DX009 (ip), vehicle: saline with Tween-80
[20] = dose: 200.0 mg/kg/injection, schedule: Q01DX009 (ip), vehicle: saline with Tween-80
[21] = dose: 50.0 mg/kg/injection, schedule: Q01DX009 (ip), vehicle: saline with Tween-80
[22] = dose: 50.0 mg/kg/injection, schedule: Q04DX003 (ip), vehicle: saline with Tween-80
[23] = dose: 100.0 mg/kg/injection, schedule: Q01DX009 (ip), vehicle: saline

Measured: T/C

CCC[CH2][Hg][Cl]
inactive: dose: 6.25 mg/kg/injection, schedule: Q01DX009 (ip), vehicle: saline with Tween-80 94 % of control | dose: 6.25 mg/kg/injection, schedule: Q04DX003 (ip), vehicle: Klucel (hydroxypropylcellulose) (HPC) 93 % of control | [1] 92 % of control | dose: 12.5 mg/kg/injection, schedule: Q04DX003 (ip), vehicle: Klucel (hydroxypropylcellulose) (HPC) 92 % of control | dose: 25.0 mg/kg/injection, schedule: Q04DX003 (ip), vehicle: Klucel (hydroxypropylcellulose) (HPC) 88 % of control

CC(CC#N)OC(=O)c1cccc([N+](=O)[O-])c1 (stereo unspecified)
inactive: [2] 91 % of control | [3] 115 % of control | [4] 93 % of control | [5] 93 % of control | [6] 98 % of control | [7] 105 % of control

COc1ccc(N2C(=O)OC3(CCN(Cc4ccccc4)CC3)C2=O)cc1
inactive: dose: 100.0 mg/kg/injection, schedule: Q01DX001 (ip), vehicle: Klucel (hydroxypropylcellulose) (HPC) 96 % of control | dose: 200.0 mg/kg/injection, schedule: Q01DX001 (ip), vehicle: Klucel (hydroxypropylcellulose) (HPC) 103 % of control | dose: 400.0 mg/kg/injection, schedule: Q01DX001 (ip), vehicle: Klucel (hydroxypropylcellulose) (HPC) 92 % of control

CCc1c(C/C(=N/O)C(=O)O)[nH]c(=S)[nH]c1=O
inactive: [8] 97 % of control | [9] 97 % of control | [10] 96 % of control

C[CH2][Pb]([CH2]C)([CH2]C)[S]c1ccc(Cl)cc1
inactive: dose: 25.0 mg/kg/injection, schedule: Q04DX002 (sc), vehicle: olive oil, sesame oil, peanut oil 110 % of control | dose: 50.0 mg/kg/injection, schedule: Q04DX002 (sc), vehicle: olive oil, sesame oil, peanut oil 87 % of control

Cc1cn(C2CCCO2)c(=O)nc1N (stereo unspecified)
inactive: [11] 103 % of control | [12] 97 % of control | [13] 95 % of control | [14] 101 % of control

NCC(O)c1cccc(O)c1 (stereo unspecified)
inactive: [15] 105 % of control | [16] 94 % of control | [17] 100 % of control | [18] 100 % of control

Cn1nnn2c(-c3ccccc3)nnc12
inactive: [19] 97 % of control | [8] 105 % of control | [20] 105 % of control | [9] 97 % of control | [10] 100 % of control

NC(=O)c1n[nH]nc1N1CC[N+](CCCl)=N1
inactive: dose: 44.0 mg/kg/injection, schedule: Q01DX009 (ip), vehicle: saline with Tween-80 110 % of control | [21] 111 % of control | [22] 105 % of control | dose: 67.0 mg/kg/injection, schedule: Q01DX009 (ip), vehicle: saline with Tween-80 107 % of control | [23] 96 % of control | [8] 97 % of control and 113 % of control | dose: 100.0 mg/kg/injection, schedule: Q04DX003 (ip), vehicle: saline 107 % of control | dose: 150.0 mg/kg/injection, schedule: Q01DX009 (ip), vehicle: saline with Tween-80 112 % of control | dose: 200.0 mg/kg/injection, schedule: Q01DX009 (ip), vehicle: saline 91 % of control | [9] 118 % of control and 121 % of control | dose: 200.0 mg/kg/injection, schedule: Q04DX003 (ip), vehicle: saline 105 % of control | dose: 400.0 mg/kg/injection, schedule: Q01DX009 (ip), vehicle: saline 95 % of control | [10] 113 % of control | dose: 400.0 mg/kg/injection, schedule: Q04DX003 (ip), vehicle: saline 94 % of control

C(=C\c1cnc2ccccc2n1)/c1ccc2c(c1)OCO2
inactive: [2] 89 % of control | [3] 95 % of control | [4] 92 % of control | [5] 91 % of control | [6] 97 % of control | [7] 93 % of control

CCOC1=C(C#N)CC2(CC1)c1ccccc1-c1ccccc12
inactive: [2] 96 % of control | [4] 95 % of control | [6] 95 % of control

O=C(C[n+]1ccccc1/C=N/O)c1ccccc1
inactive: [1] 101 % of control | dose: 25.0 mg/kg/injection, schedule: Q01DX009 (ip), vehicle: saline with Tween-80 99 % of control | [21] 101 % of control | dose: 75.0 mg/kg/injection, schedule: Q01DX001 (ip), vehicle: other 97 % of control

NC(=O)C1(Nc2ccc(-c3ccccc3)cc2)CCCC1
inactive: [15] 96 % of control | [16] 96 % of control | [17] 88 % of control | [18] 90 % of control

N=C(OCCCO)C(=N)OCCCO
inactive: [8] 115 % of control | [9] 102 % of control | [10] 96 % of control

CCCCCCCC(=O)Nc1cc2c3c(c1)CCCN3CCC2
inactive: [22] 103 % of control | [8] 97 % of control | [9] 103 % of control

O=C(O)CSCCc1ccccc1
inactive: [2] 105 % of control | [3] 106 % of control | [4] 94 % of control | [5] 105 % of control | [6] 100 % of control | [7] 100 % of control

N/N=C(\NN)c1ccccc1
inactive: [19] 92 % of control | [20] 91 % of control | dose: 400.0 mg/kg/injection, schedule: Q01DX009 (ip), vehicle: saline with Tween-80 86 % of control

Cc1cc(O)c(N=Nc2ccccc2)cc1C
inactive: [2] 102 % of control | [3] 101 % of control | [4] 96 % of control | [5] 96 % of control | [6] 96 % of control | [7] 92 % of control

CCOC(=O)C(NC(=O)C(Cc1ccc(N(CCCl)CCCl)cc1)NC(C)=O)C(C)C (stereo unspecified)
inactive: dose: 7.5 mg/kg/injection, schedule: Q01DX009 (ip), vehicle: alcohol 96 % of control | dose: 15.0 mg/kg/injection, schedule: Q01DX009 (ip), vehicle: alcohol 120 % of control | dose: 24.0 mg/kg/injection, schedule: Q01DX009 (ip), vehicle: carboxymethylcellulose (CMC) 96 % of control | dose: 25.0 mg/kg/injection, schedule: Q01DX009 (ip), vehicle: saline 98 % of control | dose: 30.0 mg/kg/injection, schedule: Q04DX003 (ip), vehicle: alcohol 110 % of control | dose: 36.0 mg/kg/injection, schedule: Q01DX009 (ip), vehicle: carboxymethylcellulose (CMC) 98 % of control | [11] 111 % of control | dose: 50.0 mg/kg/injection, schedule: Q01DX009 (ip), vehicle: carboxymethylcellulose (CMC) 104 % of control | dose: 50.0 mg/kg/injection, schedule: Q01DX009 (ip), vehicle: saline 101 % of control | dose: 50.0 mg/kg/injection, schedule: Q04DX003 (ip), vehicle: alcohol 110 % of control | dose: 75.0 mg/kg/injection, schedule: Q01DX009 (ip), vehicle: carboxymethylcellulose (CMC) 102 % of control | dose: 75.0 mg/kg/injection, schedule: Q04DX003 (ip), vehicle: alcohol 121 % of control | [12] 105 % of control | [23] 109 % of control | dose: 112.0 mg/kg/injection, schedule: Q01DX009 (ip), vehicle: alcohol 103 % of control and 108 % of control | dose: 112.0 mg/kg/injection, schedule: Q01DX009 (ip), vehicle: carboxymethylcellulose (CMC) 96 % of control | dose: 112.0 mg/kg/injection, schedule: Q04DX003 (ip), vehicle: alcohol 118 % of control | dose: 178.0 mg/kg/injection, schedule: Q01DX009 (ip), vehicle: carboxymethylcellulose (CMC) 107 % of control | dose: 178.0 mg/kg/injection, schedule: Q01DX015 (ip), vehicle: saline 103 % of control | [13] 105 % of control | dose: 267.0 mg/kg/injection, schedule: Q01DX009 (ip), vehicle: carboxymethylcellulose (CMC) 96 % of control | dose: 267.0 mg/kg/injection, schedule: Q01DX015 (ip), vehicle: saline 108 % of control | [14] 115 % of control | dose: 400.0 mg/kg/injection, schedule: Q01DX009 (ip), vehicle: carboxymethylcellulose (CMC) 98 % of control | dose: 400.0 mg/kg/injection, schedule: Q01DX015 (ip), vehicle: saline 106 % of control | dose: 600.0 mg/kg/injection, schedule: Q01DX009 (ip), vehicle: carboxymethylcellulose (CMC) 96 % of control | dose: 600.0 mg/kg/injection, schedule: Q01DX015 (ip), vehicle: saline 94 % of control
